≈ marks a conversion by molar mass, not a printed value. Like-named read-outs stand apart in the source and are kept apart here. One block for each compound: values may come before it.
Assays:
C. auris CBS12373 [1] = assay: Broth microdilution MIC; format: cell-based, Candida auris
C. auris CBS10913 [2] = assay: Checkerboard microdilution synergy test; format: cell-based, Candida auris
Protocol: (§1) The checkerboard microdilution test was performed to determine the fractional inhibitory concentration (FIC) of selected antimicrobials and assess whether the combination had synergistic, antagonistic, or indifferent effects (Anon [2016]) against strains of K. pneumoniae or C. auris. […] Additionally, a strain susceptible to ciprofloxacin was tested to observe the outcome of its combination with TM8 as a representative case from susceptible isolates. […] Then, 10 µl of bacteria (5 × 10^6 CFU ml^−1) or C. auris (2.5 × 10^4 CFU ml^−1) were added to each well, except for the sterility control well. […] The sterility control wells contained only MHB (or RPMI in case of C. auris), and the growth control contained 110 µl of microbial inoculum with no antimicrobials. Subsequently, the plates were incubated for 18- 24 hours at 36 ± 1 °C.
(§2) The FIC for each combination interaction was calculated as follows:
(§3) Then, the summation of FIC (ƩFIC) was calculated for each antimicrobial combination as follows: ƩFIC = FICA + FICB. The results were interpretated as follows: Synergy if ƩFIC ≤ 0.5; Additive if 0.5<ƩFIC ≤ 1; Indifference if […] ≤ 4; and Antagonism if ƩFIC > 4 (Odds [2003]). All antimicrobial synergy experiments were repeated in at least two independent runs.

C. auris CBS12373 [3] = assay: Checkerboard microdilution synergy test; format: cell-based, Candida auris
Protocol: as §1, §2, §3

[4] = tested on: C. auris CBS12373 biofilm; assay: Anti-adherence (biofilm prevention), MTT reduction assay; format: cell-based, Candida auris
Protocol: Finally, 3-(4,5-Dimethylthiazol 2-yl)-2,5-diphenyltetrazolium bromide (MTT) reduction assay was performed to observe the metabolic activities of C. auris.

[5] = tested on: C. auris CBS12373 biofilm; assay: Initial biofilm inhibition, MTT reduction assay; format: cell-based, Candida auris
[6] = tested on: C. auris CBS12373 biofilm; format: cell-based, Candida auris; conditions: for Mature biofilm inhibition, blank corrected 570 nm, av. of readings: MTT absorbance
Protocol: To assess disruption of mature biofilms, 2 × 10^5 cells were cultured for 2 h in 96-well flat bottom microtiter plates at 37°C, washed, then incubated for 48 h in fresh media to form mature biofilm. […] For each activity test, the metabolic activities of the yeast cells in biofilms were measured by MTT reduction assay after washing the disrupted biofilm with PBS (Srivastava and Ahmad [2020]).

C. auris CBS10913 [7] = conditions: CBS 10 913; RPMI 1640 with MOPS, 5 × 10^3 CFU ml^−1; ≥90% reduction (≥50% for fluconazole)
C. auris CBS10913 [8] = assay: microbe, parasite or virus in culture; conditions: Candidozyma auris, read-out: MIC against C. auris
A. baumannii 005 = assay: MIC Test Strip MBL (imipenem, imipenem with EDTA); format: cell-based; conditions: Acinetobacter baumannii, Mueller–Hinton agar, 20 h, 37°C, read-out: Imipenem IMI (MIC, MBL strip)
Protocol: (§4) The test was performed as per the manufacturer’s instructions. Briefly, the strips were applied to a lawn culture of bacteria maintained at 1.5 × 10^8 CFU ml^−1 on Mueller–Hinton agar (Oxoid, UK) and incubated for 20 h at 37°C.

A. baumannii 006 = assay: MIC Test Strip MBL (imipenem, imipenem with EDTA); format: cell-based; conditions: Acinetobacter baumannii, Mueller–Hinton agar, 20 h, 37°C, read-out: Imipenem IMI (MIC, MBL strip)
Protocol: as §4

A. baumannii 007 = assay: MIC Test Strip MBL (imipenem, imipenem with EDTA); format: cell-based; conditions: Acinetobacter baumannii, Mueller–Hinton agar, 20 h, 37°C, read-out: Imipenem IMI (MIC, MBL strip)
Protocol: as §4

A. baumannii 008 = assay: MIC Test Strip MBL (imipenem, imipenem with EDTA); format: cell-based; conditions: Acinetobacter baumannii, Mueller–Hinton agar, 20 h, 37°C, read-out: Imipenem IMI (MIC, MBL strip)
Protocol: as §4

K. pneumoniae JIE2709 = assay: MIC Test Strip MBL (imipenem, imipenem with EDTA); format: cell-based; conditions: Klebsiella pneumoniae, Mueller–Hinton agar, 20 h, 37°C, read-out: Imipenem IMI (MIC, MBL strip)
Protocol: as §4

K. pneumoniae JIE2713 = assay: MIC Test Strip MBL (imipenem, imipenem with EDTA); format: cell-based; conditions: Klebsiella pneumoniae, Mueller–Hinton agar, 20 h, 37°C, read-out: Imipenem IMI (MIC, MBL strip)
Protocol: as §4

P. aeruginosa 33 = assay: MIC Test Strip MBL (imipenem, imipenem with EDTA); format: cell-based; conditions: Pseudomonas aeruginosa, Mueller–Hinton agar, 20 h, 37°C, read-out: Imipenem IMI (MIC, MBL strip)
Protocol: as §4

P. aeruginosa AR-1270 = assay: MIC Test Strip MBL (imipenem, imipenem with EDTA); format: cell-based; conditions: Pseudomonas aeruginosa, AR1270, Mueller–Hinton agar, 20 h, 37°C, read-out: Imipenem IMI (MIC, MBL strip)
Protocol: as §4

[9] = Candidozyma auris, read-out: MIC of DrugB (alone, checkerboard)

- MIC against C. auris (C. auris CBS12373 [1]; CBS 12 373, RPMI 1640 with MOPS, 5 × 10^3 CFU ml^−1, ≥90% reduction (≥50% for fluconazole)): 128 µg/mL (≈ 418 µM)
- MIC90 (C. auris CBS12373 [1]; Candidozyma auris, C. auris CBS12373 suspension used in the antibiofilm study, read-out: MIC90): 512 µg/mL (≈ 1670 µM)
- MIC (C. auris CBS12373 [1]; Candidozyma auris, CBS 12 373, value in brackets, read-out: MIC against C. auris): 418 µM (≈ 128 µg/mL)
- MIC (C. auris CBS10913 [2]; [9]): 1 µg/mL
- MIC (C. auris CBS12373 [3]; [9]): 128 µg/mL
- MIC against C. auris (C. auris CBS10913 [7]): 1 µg/mL (≈ 3.27 µM)
- MIC (C. auris CBS10913 [8]): 3.3 µM (≈ 1.01 µg/mL)
SMILES: OC(Cn1cncn1)(Cn1cncn1)c1ccc(F)cc1F [Fluconazole, reference compound]
- FICDrugB (C. auris CBS10913 [2]; in combination with TM8): 0.0625
- MF of antibiotic (modulation factor) (C. auris CBS10913 [2]; in combination with TM8): 16
- FICDrugB (C. auris CBS12373 [3]; in combination with TM8): 0.0625
- MF of antibiotic (modulation factor) (C. auris CBS12373 [3]; in combination with TM8 (0.5× MIC)): 16
- Biofilm tolerance factor-prevention (BPC/MIC) [4]: 8
- Anti-adherence (BPC) ([4]; 2 h adhesion with agent, 48 h growth, ≥90% reduction): 4096 µg/mL
- Biofilm tolerance factor-inhibition (MBIC/MIC) [5]: 4
- Initial biofilm MBIC ([5]; 4 h adhesion, then 48 h with agent, ≥90% reduction): 2048 µg/mL
- Mature biofilm MBEC ([6]; C. auris CBS12373, 48 h biofilm, then 24 h with agent, MTT, ≥90% reduction): 2048 µg/mL
- Biofilm tolerance factor-eradication (MBEC/MIC) ([6]; C. auris CBS12373, MTT): 4
- Mature biofilm inhibition, blank corrected 570 nm, av. of readings ([6]; agent at 4 (growth control 1.918)): 2.95
- Mature biofilm inhibition, blank corrected 570 nm, av. of readings ([6]; agent at 8 (growth control 1.918)): 2.348
- Mature biofilm inhibition, blank corrected 570 nm, av. of readings ([6]; agent at 16 (growth control 1.918)): 2.232
- Mature biofilm inhibition, blank corrected 570 nm, av. of readings ([6]; agent at 32 (growth control 1.918)): 2.12
- Mature biofilm inhibition, blank corrected 570 nm, av. of readings ([6]; agent at 64 (growth control 1.918)): 2.186
- Mature biofilm inhibition, blank corrected 570 nm, av. of readings ([6]; agent at 128 (growth control 1.918)): 0.95
- Mature biofilm inhibition, blank corrected 570 nm, av. of readings ([6]; agent at 256 (growth control 1.918)): 0.345
- Mature biofilm inhibition, blank corrected 570 nm, av. of readings ([6]; agent at 512 (growth control 1.918)): 0.145
- Mature biofilm inhibition, blank corrected 570 nm, av. of readings ([6]; agent at 1024 (growth control 1.918)): 0.104
- Mature biofilm inhibition, blank corrected 570 nm, av. of readings ([6]; agent at 2048 (growth control 1.918)): 0.008

- MIC (A. baumannii 005): 64 µg/mL (≈ 214 µM)
- MIC (A. baumannii 006): 64 µg/mL (≈ 214 µM)
- MIC (A. baumannii 007): 96 µg/mL (≈ 321 µM)
- MIC (A. baumannii 008): 48 µg/mL (≈ 160 µM)
- MIC (K. pneumoniae JIE2709): 16 µg/mL (≈ 53.4 µM)
- MIC (K. pneumoniae JIE2713): 128 µg/mL (≈ 428 µM)
- MIC (P. aeruginosa 33): 8 µg/mL (≈ 26.7 µM)
- MIC (P. aeruginosa AR-1270): 16 µg/mL (≈ 53.4 µM)
SMILES: C[C@@H](O)[C@H]1C(=O)N2C(C(=O)O)=C(SCCN=CN)C[C@H]12 [Imipenem, imipenem]

From publication PMC11879280, “Antimicrobial activity of peptoids against Metallo-β-lactamase-producing Klebsiella pneumoniae, Acinetobacter baumannii, Pseudomonas aeruginosa, and other WHO priority pathogens, including Candida auris” (Journal of Applied Microbiology, 2025)
